Test results as given in patent US8017633B2, “Roflumilast for the treatment of diabetes mellitus” (Nycomed GmbH, priority 2005, dated 2011).

Tests used:
[1] = test system: C57BLKS db/db mice; test: Daily food intake of db/db mice during once-daily oral treatment; assay type: in vivo, mouse; conditions: for Daily food intake on the days of application: 30 mg/kg oral once daily
Method: (§1) Female C57BLKS db/db mice obtained from M&B A/S (8680 Ry, Denmark) were used in the studies at 10 to 11 weeks of age. Mice were housed 10 per cage and allowed free access to water and standard laboratory diet for rodents (chow 3433, Provimi Kliba SA, 4303 Kaiseraugst, Switzerland).
(§2) Mice were treated with vehicle, Roflumilast or Roflumilast-N-Oxide, respectively once daily in the morning. Roflumilast or Roflumilast-N-Oxide was suspended in 4% methocel and applied via oral gavage using oral feeding & dosing needles (outer diameter: 1.5 mm, TSE GmbH, 61350 Bad Homburg, Germany). A volume of 10 ml/kg body weight was administered for each dose.
(§3) The daily intake of food (chow 3433) and water was measured per animal (total daily intake of food divided by the number of animals) before and during the treatment with Roflumilast or Roflumilast-N-Oxide.

[2] = test system: C57BLKS db/db mice; test: Daily water intake of db/db mice during once-daily oral treatment; assay type: in vivo, mouse
Method: as §1, §2, §3

[3] = db/db mice, treatment once daily oral

O=C(Nc1c(Cl)c[n+]([O-])cc1Cl)c1ccc(OC(F)F)c(OCC2CC2)c1 [Rof-N-Oxide, 3-cyclopropylmethoxy-4-difluoromethoxy-N-(3,5-dichloro-1-oxido-pyridin-4-yl)benzamide]
Daily food intake on the days of application ([1]; Day 3): 1.2 g per mouse | Daily food intake on the days of application ([1]; Day 4): 0.8 g per mouse | Daily food intake on the days of application ([1]; Day 5): 0.9 g per mouse | Daily food intake on the days of application ([1]; Day 6): 1.1 g per mouse | Daily food intake on the days of application ([1]; Day 7): 0.7 g per mouse | Daily food intake on the days of application ([1]; Day 8): 0.6 g per mouse | Effect on daily food intake (summary in words) [1, 3]: reduce in a dose-dependent manner | Daily water intake before the first application ([2]; 1 mg/kg group, Day −1, before first application): 8.6 g per mouse | Daily water intake before the first application ([2]; 1 mg/kg group, Day −2, before first application): 7.9 g per mouse | Daily water intake before the first application ([2]; 1 mg/kg group, Day −3, before first application): 8.4 g per mouse | Daily water intake before the first application ([2]; 1 mg/kg group, Day −4, before first application): 9.4 g per mouse | Daily water intake before the first application ([2]; 1 mg/kg group, Day −5, before first application): 9.2 g per mouse | Daily water intake on the days of application ([2]; 1 mg/kg oral once daily, Day 1): 7.6 g per mouse | Daily water intake on the days of application ([2]; 1 mg/kg oral once daily, Day 2): 6.9 g per mouse | Daily water intake on the days of application ([2]; 1 mg/kg oral once daily, Day 4): 7.1 g per mouse | Daily water intake on the days of application ([2]; 1 mg/kg oral once daily, Day 5): 8.0 g per mouse | Daily water intake on the days of application ([2]; 1 mg/kg oral once daily, Day 6): 7.7 g per mouse | Daily water intake on the days of application ([2]; 1 mg/kg oral once daily, Day 7): 8.5 g per mouse | Daily water intake on the days of application ([2]; 1 mg/kg oral once daily, Day 8): 7.2 g per mouse | Daily water intake before the first application ([2]; 3 mg/kg group, Day −1, before first application): 9.1 g per mouse | Daily water intake before the first application ([2]; 3 mg/kg group, Day −2, before first application): 7.6 g per mouse | Daily water intake before the first application ([2]; 3 mg/kg group, Day −3, before first application): 7.6 g per mouse | Daily water intake before the first application ([2]; 3 mg/kg group, Day −4, before first application): 4.3 g per mouse | Daily water intake before the first application ([2]; 3 mg/kg group, Day −5, before first application): 9.8 g per mouse | Daily water intake on the days of application ([2]; 3 mg/kg oral once daily, Day 1): 5.1 g per mouse | Daily water intake on the days of application ([2]; 3 mg/kg oral once daily, Day 2): 5.9 g per mouse | Daily water intake on the days of application ([2]; 3 mg/kg oral once daily, Day 4): 5.9 g per mouse | Daily water intake on the days of application ([2]; 3 mg/kg oral once daily, Day 5): 5.7 g per mouse | Daily water intake on the days of application ([2]; 3 mg/kg oral once daily, Day 6): 5.4 g per mouse | Daily water intake on the days of application ([2]; 3 mg/kg oral once daily, Day 7): 5.4 g per mouse | Daily water intake on the days of application ([2]; 3 mg/kg oral once daily, Day 8): 5.2 g per mouse | Daily water intake before the first application ([2]; 10 mg/kg group, Day −1, before first application): 9.6 g per mouse | Daily water intake before the first application ([2]; 10 mg/kg group, Day −2, before first application): 8.2 g per mouse | Daily water intake before the first application ([2]; 10 mg/kg group, Day −3, before first application): 7.9 g per mouse | Daily water intake before the first application ([2]; 10 mg/kg group, Day −4, before first application): 9.6 g per mouse | Daily water intake before the first application ([2]; 10 mg/kg group, Day −5, before first application): 12.1 g per mouse | Daily water intake on the days of application ([2]; 10 mg/kg oral once daily, Day 1): 2.9 g per mouse | Daily water intake on the days of application ([2]; 10 mg/kg oral once daily, Day 2): 3.5 g per mouse | Daily water intake on the days of application ([2]; 10 mg/kg oral once daily, Day 4): 3.2 g per mouse | Daily water intake on the days of application ([2]; 10 mg/kg oral once daily, Day 5): 3.7 g per mouse | Daily water intake on the days of application ([2]; 10 mg/kg oral once daily, Day 6): 3.3 g per mouse | Daily water intake on the days of application ([2]; 10 mg/kg oral once daily, Day 7): 3.0 g per mouse | Daily water intake on the days of application ([2]; 10 mg/kg oral once daily, Day 8): 4.1 g per mouse | Daily water intake before the first application ([2]; 30 mg/kg group, Day −1, before first application): 10.1 g per mouse | Daily water intake before the first application ([2]; 30 mg/kg group, Day −2, before first application): 9.4 g per mouse | Daily water intake before the first application ([2]; 30 mg/kg group, Day −3, before first application): 10.0 g per mouse | Daily water intake before the first application ([2]; 30 mg/kg group, Day −4, before first application): 12.4 g per mouse | Daily water intake before the first application ([2]; 30 mg/kg group, Day −5, before first application): 10.1 g per mouse | Daily water intake on the days of application ([2]; 30 mg/kg oral once daily, Day 1): 2.3 g per mouse | Daily water intake on the days of application ([2]; 30 mg/kg oral once daily, Day 2): 2.4 g per mouse | Daily water intake on the days of application ([2]; 30 mg/kg oral once daily, Day 4): 2.6 g per mouse | Daily water intake on the days of application ([2]; 30 mg/kg oral once daily, Day 5): 3.0 g per mouse | Daily water intake on the days of application ([2]; 30 mg/kg oral once daily, Day 6): 2.9 g per mouse | Daily water intake on the days of application ([2]; 30 mg/kg oral once daily, Day 7): 3.3 g per mouse | Daily water intake on the days of application ([2]; 30 mg/kg oral once daily, Day 8): 2.5 g per mouse | Effect on increased daily water intake (summary in words) [2, 3]: reduced
